Experimental data: patent US10301261B2, “Substituted indoles as modulators of ROR-gamma” (Vitae Pharmaceuticals, LLC, priority 2015, dated 2019)

Legend:
[1] = target: recombinant RORγ Ligand Binding Domain (LBD) protein (Homo sapiens (Human), UniProt P51449); test: Radio-Ligand RORγ Binding Assay (Assay 1); settings: radio-ligand 25-hydroxy [26,27-3H]-cholesterol competition
Method: Radio-Ligand RORγ Binding Assay (Assay 1)
Compounds described herein were tested for ability to bind to RORγ in a cell-free competition assay with commercially available radio-ligand (RL), 25-hydroxy [26,27-^3H]-cholesterol (PerkinElmer, Cat. # NET674250UC), for a ligand binding site on a recombinant RORγ Ligand Binding Domain (LBD) protein expressed as a 6×His-Glutathione-S-Transferase (GST) fusion. […] The plate was shaken at 700 rpm for 20 min and incubated for 10 min at rt, after which 40 μL of poly-Lys YSi SPA beads (PerkinElmer, Cat. # RPNQ0010) were added to achieve 50 μg of the beads per well. The plate was incubated on an orbital shaker for 20 min and then for 10 min without agitation at rt. SPA signal for tritium beta radiation was registered on PerkinElmer Microbeta plate reader. […] The percent inhibition vs. concentration data were fit into a four-parameter model, and IC50 values were calculated from the fit as the concentrations corresponding to the inflection points on the dose-response curves. […]

[2] = target: full-length RORγt in Jurkat cells (Homo sapiens (Human), UniProt P51449); test: RORγt 5×RORE Assay in Jurkat Cells (Assay 2); format: cell-based; settings: RORγt 5×RORE Nanoluc reporter
Method: [formula] RORγt 5×RORE Assay in Jurkat Cells (Assay 2)
Compounds described herein were tested for RORγ inverse agonist activity in a cell-based, transcriptional activity assay. […] (Promega, Cat. # N1021) using KpnI and HindIII restriction sites. […] Tested compounds were added to the cells in the same media (final concentration of DMSO was 0.1% (v/v)), and the plates were incubated at 37° C./5% CO2 for 16-18 hrs. Luciferase activity in the conditioned supernatants was determined with NanoGlo® assay reagents (Promega, Cat.# N1130).

recombinant RORγ Ligand Binding Domain (LBD) protein, sequence (P51449 269-508): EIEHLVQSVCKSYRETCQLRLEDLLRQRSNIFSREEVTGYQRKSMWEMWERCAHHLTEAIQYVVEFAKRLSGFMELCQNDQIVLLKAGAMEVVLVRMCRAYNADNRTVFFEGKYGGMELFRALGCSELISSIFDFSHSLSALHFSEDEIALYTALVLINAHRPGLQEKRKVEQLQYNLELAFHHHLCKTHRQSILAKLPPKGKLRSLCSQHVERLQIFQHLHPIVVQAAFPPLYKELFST
full-length RORγt in Jurkat cells, sequence (P51449 other isoform, or with tags, fused parts or gaps): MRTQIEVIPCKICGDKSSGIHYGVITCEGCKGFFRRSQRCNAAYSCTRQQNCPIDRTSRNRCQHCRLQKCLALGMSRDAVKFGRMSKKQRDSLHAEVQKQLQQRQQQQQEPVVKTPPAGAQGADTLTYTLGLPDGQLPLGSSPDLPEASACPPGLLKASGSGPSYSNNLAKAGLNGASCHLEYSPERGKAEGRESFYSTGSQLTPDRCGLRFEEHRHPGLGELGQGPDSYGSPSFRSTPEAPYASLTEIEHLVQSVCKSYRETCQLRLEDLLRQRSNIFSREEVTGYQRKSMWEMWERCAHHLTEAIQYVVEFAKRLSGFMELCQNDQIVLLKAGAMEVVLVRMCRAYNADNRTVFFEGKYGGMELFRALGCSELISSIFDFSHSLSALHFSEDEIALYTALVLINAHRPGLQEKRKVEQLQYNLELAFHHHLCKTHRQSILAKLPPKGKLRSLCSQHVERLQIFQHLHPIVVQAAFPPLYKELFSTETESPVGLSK

Compound | Ki [1] | IC50 [2]
CCn1c(Oc2ccc(C(F)(F)F)cc2)nc2cc(C(=O)N[C@@H](CN)c3ccc(S(=O)(=O)CC)cc3)ccc21 [BE-11, (R)-N-(2-amino-1-(4-(ethylsulfonyl)phenyl)ethyl)-1-ethyl-2-(4-(trifluoromethyl)phenoxy)-1H-benzo[d]imidazole-5-carboxamide] | < 100 nM | < 100 nM
1-ethyl-N-((R)-1-(4-(ethylsulfonyl)phenyl)-2-hydroxyethyl)-2-(((1s,4S)-4-(trifluoromethyl)cyclohexyl)methyl)-1H-indole-5-carboxamide [IN-16.2] | < 100 nM | > 1000 nM
CCS(=O)(=O)c1ccc(CNC(=O)c2ccc3c(c2)nc(C[C@H]2CC[C@H](C(F)(F)F)CC2)n3CC(C)C)cc1 [BE-19.1, N-(4-(ethylsulfonyl)benzyl)-1-isobutyl-2-(((1r,4r)-4-(trifluoromethyl)cyclohexyl)methyl)-1H-benzo[d]imidazole-5-carboxamide] | < 100 nM | < 100 nM
CCS(=O)(=O)c1ccc(CNC(=O)c2ccc3c(c2)nc(C[C@H]2CC[C@H](C(F)(F)F)CC2)n3CC(C)C)nc1 [BE-26.1, N-((5-(ethylsulfonyl)pyridin-2-yl)methyl)-1-isobutyl-2-(((1r,4r)-4-(trifluoromethyl)cyclohexyl)methyl)-1H-benzo[d]imidazole-5-carboxamide] | < 100 nM | > 1000 nM
CCS(=O)(=O)c1ccc([C@@H](CO)NC(=O)c2ccc3c(c2)nc(C[C@H]2CC[C@H](C(F)(F)F)CC2)n3C2CC2)nc1 [BE-29, 1-cyclopropyl-N-((S)-1-(5-(ethylsulfonyl)pyridin-2-yl)-2-hydroxyethyl)-2-(((1r,4S)-4-(trifluoromethyl)cyclohexyl)methyl)-1H-benzo[d]imidazole-5-carboxamide] | > 1000 nM | –
CS(=O)(=O)c1ccc(CNC(=O)c2cnc3c(c2)nc(Cc2ccc(C(F)(F)F)cc2)n3C2CC2)cc1 [AB-2, 3-cyclopropyl-N-(4-(methylsulfonyl)benzyl)-2-(4-(trifluoromethyl)benzyl)-3H-imidazo[4,5-b]pyridine-6-carboxamide] | 100 to 1000 nM | –
CCS(=O)(=O)c1ccc(CNC(=O)c2ccc3c(c2)nc(O[C@H]2CC[C@@H](C(F)(F)F)CC2)n3CC(C)C)cc1 [BE-4.2, N-(4-(ethylsulfonyl)benzyl)-1-isobutyl-2-(((1s,4s)-4-(trifluoromethyl)cyclohexyl)oxy)-1H-benzo[d]imidazole-5-carboxamide] | < 100 nM | > 1000 nM
CCS(=O)(=O)c1ccc(CNC(=O)c2ccc3c(c2)nc(C[C@H]2CC[C@H](OC)CC2)n3C2CC2)cc1 [BE-46.1, 1-cyclopropyl-N-(4-(ethylsulfonyl)benzyl)-2-(((1r,4r)-4-methoxycyclohexyl)methyl)-1H-benzo[d]imidazole-5-carboxamide] | < 100 nM | 100 to 1000 nM
CCS(=O)(=O)c1ccc(CNC(=O)c2ccc3c(c2)nc(C(=O)C2CCC(C(F)(F)F)CC2)n3C2CC2)cc1 (stereo not shown) [BE-64, 1-cyclopropyl-N-(4-(ethylsulfonyl)benzyl)-2-(4-(trifluoromethyl)cyclohexane-1-carbonyl)-1H-benzo[d]imidazole-5-carboxamide] | < 100 nM | –
CCS(=O)(=O)c1ccc(CNC(=O)c2cc(Br)c3c(c2)nc(Cc2ccc(C(F)(F)F)cc2)n3C)cc1 [BE-59, 7-bromo-N-(4-(ethylsulfonyl)benzyl)-1-methyl-2-(4-(trifluoromethyl)benzyl)-1H-benzo[d]imidazole-5-carboxamide] | 100 to 1000 nM | –
CCn1c(Oc2ccc(C(F)(F)F)cc2)nc2cc(C(=O)N[C@@H](CN(C)C)c3ccc(S(=O)(=O)CC)cc3)ccc21 [BE-10, (R)-N-(2-(dimethylamino)-1-(4-(ethylsulfonyl)phenyl)ethyl)-1-ethyl-2-(4-(trifluoromethyl)phenoxy)-1H-benzo[d]imidazole-5-carboxamide] | 100 to 1000 nM | –
CCS(=O)(=O)c1ccc(CNC(=O)c2ccc3c(c2)nc(Cc2ccc(C(F)(F)F)cc2)n3C2CCC2)cc1 [BE-38, 1-cyclobutyl-N-(4-(ethylsulfonyl)benzyl)-2-(4-(trifluoromethyl)benzyl)-1H-benzo[d]imidazole-5-carboxamide] | < 100 nM | –
CCn1c(CC2CCC(C(F)(F)F)OC2)nc2cc(C(=O)NCc3ccc(S(=O)(=O)CC)cc3)ccc21 (single isomer, unassigned) [BE-56.2, 1-ethyl-N-(4-(ethylsulfonyl)benzyl)-2-((6-(trifluoromethyl)tetrahydro-2H-pyran-3-yl)methyl)-1H-benzo[d]imidazole-5-carboxamide] | 100 to 1000 nM | –
CCn1c(CC2CCC(C(F)(F)F)OC2)nc2cc(C(=O)NCc3ccc(S(=O)(=O)CC)cc3)ccc21 (single isomer, unassigned) [BE-56.3, 1-ethyl-N-(4-(ethylsulfonyl)benzyl)-2-((6-(trifluoromethyl)tetrahydro-2H-pyran-3-yl)methyl)-1H-benzo[d]imidazole-5-carboxamide] | 100 to 1000 nM | –
CCn1c(Cc2ccc(OC(F)F)cc2)cc2cc(C(=O)N[C@@H](CO)c3ccc(S(=O)(=O)CC)cn3)ccc21 [IN-6, (R)-2-(4-(difluoromethoxy)benzyl)-1-ethyl-N-(1-(5-(ethylsulfonyl)pyridin-2-yl)-2-hydroxyethyl)-1H-indole-5-carboxamide] | < 100 nM | –
CCS(=O)(=O)c1ccc(CNC(=O)c2ccc3c(c2)nc(Cc2ccc(C(F)(F)F)cc2)n3CC(C)C)nc1 [BE-43, N-((5-(ethylsulfonyl)pyridin-2-yl)methyl)-1-isobutyl-2-(4-(trifluoromethyl)benzyl)-1H-benzo[d]imidazole-5-carboxamide] | < 100 nM | –
CCn1c(CC2CCC(C(F)(F)F)OC2)nc2cc(C(=O)NCc3ccc(S(=O)(=O)CC)cc3)ccc21 (single isomer, unassigned) [BE-56.1, 1-ethyl-N-(4-(ethylsulfonyl)benzyl)-2-((6-(trifluoromethyl)tetrahydro-2H-pyran-3-yl)methyl)-1H-benzo[d]imidazole-5-carboxamide] | 100 to 1000 nM | –
CCS(=O)(=O)c1ccc(CC(=O)Nc2ccc3c(c2)nc(Cc2ccc(C(F)(F)F)cc2)n3CC(C)C)cc1 [BE-68, 2-(4-(ethylsulfonyl)phenyl)-N-(1-isobutyl-2-(4-(trifluoromethyl)benzyl)-1H-benzo[d]imidazol-5-yl)acetamide] | < 100 nM | –
CCS(=O)(=O)c1ccc(CNC(=O)c2cc(Br)c3c(c2)nc(C[C@H]2CC[C@H](C(F)(F)F)CC2)n3C)cc1 [BE-58, 7-bromo-N-(4-(ethylsulfonyl)benzyl)-1-methyl-2-(((1r,4r)-4-(trifluoromethyl)cyclohexyl)methyl)-1H-benzo[d]imidazole-5-carboxamide] | 100 to 1000 nM | –
C=C(C)Cn1c(Cc2ccc(C(F)(F)F)cc2)cc2cc(C(=O)NCc3ccc(S(=O)(=O)CC)cc3)cnc21 [AI-3, N-(4-(ethylsulfonyl)benzyl)-1-(2-methylallyl)-2-(4-(trifluoromethyl)benzyl)-1H-pyrrolo[2,3-b]pyridine-5-carboxamide] | < 100 nM | –
CCn1c(Cc2cccc(OC(F)F)c2)cc2cc(C(=O)N[C@@H](CO)c3ccc(S(=O)(=O)CC)cn3)ccc21 [IN-7, (R)-2-(3-(difluoromethoxy)benzyl)-1-ethyl-N-(1-(5-(ethylsulfonyl)pyridin-2-yl)-2-hydroxyethyl)-1H-indole-5-carboxamide] | < 100 nM | –
